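Compound exposure: 48 hours, 5 concentrations, 96-well plates. TGI marks complete inhibition of growth.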
Assays:
Test in all cases: growth of human tumour cells (NCI), 48 h
SNB-75 CNS = tested on: SNB-75 CNS
ACHN renal = tested on: ACHN renal
OVCAR-8 ovarian = tested on: OVCAR-8 ovarian
U251 CNS = tested on: U251 CNS
HOP-62 NSCLC = tested on: HOP-62 NSCLC
MDA-N = tested on: MDA-N
HOP-92 NSCLC = tested on: HOP-92 NSCLC
SK-OV-3 ovarian = tested on: SK-OV-3 ovarian
A498 renal = tested on: A498 renal
SF-539 CNS = tested on: SF-539 CNS
UO-31 renal = tested on: UO-31 renal
SF-295 CNS = tested on: SF-295 CNS
TK-10 renal = tested on: TK-10 renal
NCI-H522 lung = tested on: NCI-H522 lung
HCC-2998 colon = tested on: HCC-2998 colon
HT29 colon = tested on: HT29 colon
CCRF-CEM leukemia = tested on: CCRF-CEM leukemia
HL-60(TB) leukemia = tested on: HL-60(TB) leukemia
OVCAR-5 ovarian = tested on: OVCAR-5 ovarian
DU-145 prostate = tested on: DU-145 prostate

Measured: TGI

CC(=O)c1c2c(cc3c1CC1(Cc4cc5c(cc4C1)C(=O)CCC5)C3)CCCC2 (stereo not drawn)
12.9 µM: MDA-N
97.9 µM: HCC-2998 colon
5.01 µM: CCRF-CEM leukemia
> 45.5 µM: SF-295 CNS
8.95 µM: A498 renal
> 90.6 µM: UO-31 renal
17.2 µM: ACHN renal
> 32.7 µM: HT29 colon
43.4 µM: HOP-62 NSCLC
13.6 µM: SF-539 CNS
31.4 µM: NCI-H522 lung
40.1 µM: HOP-92 NSCLC
4.17 µM: HL-60(TB) leukemia
> 80.6 µM: OVCAR-8 ovarian
> 26.1 µM: SNB-75 CNS
> 100 µM: all other assays above

CC[C@@H]([C@H](O)c1ccccc1Cl)[N+](=O)[O-]
> 100 µM: all assays above

CSC1(C(=O)O)C2CCC3C2CCC31 (stereo not drawn)
> 100 µM: all assays above

O=c1oc2ccccc2c(O)c1C(c1cccc(C(c2c(O)c3ccccc3oc2=O)c2c(O)c3ccccc3oc2=O)c1)c1c(O)c2ccccc2oc1=O
41.6 µM: SNB-75 CNS
53.9 µM: SF-539 CNS
46.2 µM: HCC-2998 colon
45.8 µM: HL-60(TB) leukemia
35.6 µM: NCI-H522 lung
69.3 µM: CCRF-CEM leukemia
not listed: UO-31 renal
> 100 µM: all other assays above

C=CCc1oc(C)nc1CCCC
> 100 µM: all assays above

CO[C@@H]1C[C@H]2[C@@H]3CC[C@H]([C@H](C)COC(C)=O)[C@@]3(C)CC[C@@H]2[C@@]2(C)CC[C@H]3C[C@]312
not listed: SK-OV-3 ovarian
> 100 µM: all other assays above
